# Source: PubChem BioAssay (NCI)
# Several values for one entry are separate records, joined by “and”; a condition that tells them apart may be missing. Identical values can stand only once.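 Assay format: 96-well plates, 48-hour exposure. GI50: concentration for 50% inhibition of growth. TGI marks complete inhibition of growth.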
# Experiments:
# Test in all cases: growth of human tumour cells (NCI), 48 h
# KM12 colon = tested on: KM12 colon
# HL-60(TB) leukemia = tested on: HL-60(TB) leukemia
# A498 renal = tested on: A498 renal
# UACC-62 melanoma = tested on: UACC-62 melanoma
# NCI-H23 lung = tested on: NCI-H23 lung
# MCF7 breast = tested on: MCF7 breast
# NCI/ADR-RES ovarian = tested on: NCI/ADR-RES ovarian
# PC-3 prostate = tested on: PC-3 prostate
# MDA-MB-231 breast = tested on: MDA-MB-231 breast
# T-47D breast = tested on: T-47D breast
SMILES,TGI (KM12 colon),TGI (HL-60(TB) leukemia),TGI (A498 renal),TGI (UACC-62 melanoma),TGI (NCI-H23 lung),GI50 (KM12 colon),GI50 (A498 renal),GI50 (MCF7 breast),TGI (MCF7 breast),GI50 (UACC-62 melanoma),GI50 (NCI-H23 lung),GI50 (NCI/ADR-RES ovarian),TGI (NCI/ADR-RES ovarian),GI50 (PC-3 prostate),TGI (PC-3 prostate),GI50 (MDA-MB-231 breast),TGI (MDA-MB-231 breast),TGI (T-47D breast),GI50 (HL-60(TB) leukemia),GI50 (T-47D breast)
O=C(CC(=O)c1ccccc1)C(=O)Nc1ccc(Cl)cc1,> 100 µM,> 100 µM,> 100 µM,> 100 µM,> 100 µM,–,–,–,–,–,–,–,–,–,–,–,–,–,–,–
Clc1nc(Cl)c2ncn(CCOCCn3cnc4c(Cl)nc(Cl)nc43)c2n1,0.491 µM,–,3.2 µM,0.412 µM,0.401 µM,0.236 µM,1.72 µM,0.192 µM,0.455 µM,0.198 µM,0.204 µM,0.216 µM,0.424 µM,0.188 µM,0.365 µM,0.187 µM,0.355 µM,–,–,–
Cc1ccc(S(=O)(=O)NC(=O)OC23COCN2COC3)cc1,> 100 µM,–,> 100 µM,> 100 µM,> 100 µM,–,–,–,> 100 µM,–,–,–,> 100 µM,–,> 100 µM,–,> 100 µM,> 100 µM,–,–
N#CC1C(N)=NNC12Nc1ccccc1S2 (centres undefined),91.6 µM,> 100 µM,–,30.3 µM,22.8 µM,18.9 µM,–,37.5 µM,> 100 µM,12.2 µM,5.23 µM,17.7 µM,54.1 µM,14.1 µM,> 100 µM,3.59 µM,16.6 µM,50.3 µM,42.5 µM,4.04 µM
Cc1cc(O)c2c3c(ccc2c1)C(=O)c1c(O)cccc1C3=O,> 37.8 µM,–,> 100 µM,13.6 µM,> 100 µM,–,–,–,> 100 µM,–,–,–,> 100 µM,–,> 100 µM,–,> 100 µM,> 100 µM,–,–
O=C1C(Nc2cccc(O)c2)=C(Sc2ccccc2)C(=O)N1Cc1ccccc1,28.8 µM,–,–,18.9 µM,27.8 µM,14 µM,–,6.87 µM,22.8 µM,5.3 µM,11.4 µM,11.5 µM,31.9 µM,2.15 µM,14.3 µM,–,–,19.9 µM,–,1.84 µM
COc1c(OC(C)C)cc2cc(O)c(C(=O)NC3Cc4ccc(c(Cl)n4)O[C@@H]4C=C5C#C/C(=C\C#CC6OC56C4OC4CC(C)(O)C(O)C(C)O4)C(OC4CC(O)C(N(C)C)C(C)O4)COC3=O)cc2c1OC (some centres undefined),> 36.3 µM and 37.5 µg/mL,> 36.3 µM and 0.336 µg/mL,> 36.3 µM and 8.7 µg/mL,21 µM and 7.44 µg/mL,> 36.3 µM and 1.79 µg/mL,> 36.3 µM and 10.1 µg/mL,0.168 µg/mL,–,> 36.3 µM,4.33 µM and 0.511 µg/mL,6.32 µM and 0.296 µg/mL,–,> 36.3 µM,–,> 36.3 µM,–,–,> 36.3 µM,27.5 µM and 0.019 µg/mL,–
CCc1ccccc1NC(=O)CC1NC(=O)CS1 (centres undefined),> 100 µM,> 100 µM,> 100 µM,> 100 µM,> 100 µM,–,–,–,–,–,–,–,–,–,–,–,–,–,–,–
CC(=O)CC(=O)CCC(=O)Nc1cccc(C(F)(F)F)c1,> 100 µM,> 100 µM,> 100 µM,> 100 µM,> 100 µM,–,–,–,–,–,–,–,–,–,–,–,–,–,–,–
Cn1nc(-c2ccccc2)c(C(=O)/C=C/c2ccc(Cl)cc2)c(N2CCOCC2)c1=O,–,4.38 µM,15.8 µM,10.7 µM,8.25 µM,–,–,–,–,–,–,–,–,–,–,–,–,–,–,–
